COC(=O)c1cc(OC)c2c(c1-c1c(C(=O)OC)cc(OC)c3c1OCO3)OCO2
solubility (mole fraction)
Conditions | 293.15 K | 303.15 K | 313.15 K | 323.15 K | 333.15 K
in acetone | 0.00457 | 0.0068 | 0.0104 | 0.0174 | –
in acetonitrile | 0.00542 | 0.00808 | 0.0123 | 0.0189 | –
in ethanol | 6.48e-05 | 0.000114 | 0.000277 | 0.000523 | 0.00102
in ethyl acetate | 0.00302 | 0.0044 | 0.00659 | 0.0103 | –
in isopropanol | 6.44e-05 | 0.00011 | 0.000223 | 0.000484 | 0.00107
in methanol | 7.18e-05 | 0.000121 | 0.000275 | 0.000459 | –
in methyl acetate | 0.00549 | 0.00775 | 0.0124 | 0.0193 | –
in n-butanol | 5.71e-05 | 0.000114 | 0.000214 | 0.000511 | 0.00104
in n-butyl acetate | 0.00137 | 0.00199 | 0.00318 | 0.00554 | 0.00831
in n-pentanol | 6.14e-05 | 0.000114 | 0.000199 | 0.000388 | 0.00104
in n-pentyl acetate | 0.0011 | 0.00154 | 0.00244 | 0.00387 | 0.00649
in n-propanol | 5.78e-05 | 0.000104 | 0.000211 | 0.000479 | 0.00107
in n-propyl acetate | 0.00171 | 0.00279 | 0.00423 | 0.00659 | 0.0117

Source: BigSolDB 2.1
